Source: US6423855B1, “Cytoprotective compounds” (Virginia Commonwealth University, priority 1996, dated 2002)
Values after ≈ are worked out from the molar mass of the structure shown. Where two headings read alike, the source gives them in different places.

Columns and labels:
[1] = solubility in water; assay type: physicochemical
Protocol: To 6.22 g (20.8 mmol) of ricinoleic acid and 4.00 g of triethylamine in 150 mL THF was added 2.31 g (9.0 mmol) of ethylenediamine tetraacetic acid dianhydride. After stirring 15 min at 40° C., 20 mL of acetonitrile was added, since ethylenediamine tetraacetic acid dianhydride was not dissolved completely. The solution was stirred for 72 h under reflux and gradually turned yellow during this time. The solvent was removed under reduced pressure. The mixture was suspended in 100 mL of ether and extracted twice with 50 mL of saturated aqueous sodium chloride. After drying the ether solution, the solvent was removed under reduced pressure. The residue was suspended in methanol and filtered. The solvent was removed under reduced pressure. The residual oil was purified by chromatography on silica gel, eluted with a gradient of acetone/methanol (70:30 v/v to 0:100 v/v). N,N-bis(oleic acid-12-oxycarbonylmethyl)-N-N′-bis(carboxylmethyl) ethylenediamine was isolated as a yellow solid with a yield of 1.23 g (14%).

[2] = test system: PLA2 activities derived from human platelets and human polymorphonuclear leukocytes (PMNs); assay: in vitro PLA2 activities from human platelets and PMNs; assay type: biochemical; details: unesterified cis-unsaturated fatty acids
Text: Oxidation of the sarcoplasmic reticulum of muscle and of phospholipid membranes predisposes them to phospholipase degradation. Phospholipid membranes that have been oxidized at particular sites may appear intact and maintain functional activity, but their oxidation makes them vulnerable to degradation and destruction by PLA2 or other phospholipases from endogenous or exogenous sources.

[3] = test system: clone W2 (P.falciparum); assay: 3H-hypoxanthine incorporation, P.falciparum clone W2; assay type: cell-based; details: Plasmodium falciparum
[4] = test system: clone D6 (P. falciparum); assay: 3H-hypoxanthine incorporation, P.falciparum clone D6; assay type: cell-based; details: Plasmodium falciparum
[5] = test system: epidermis cell turnover; assay: cell turnover rate (dansyl chloride); assay type: in vivo, human
Protocol: Two PX compounds PX-11 and PX-13 were evaluated in a cream formulation prepared under GMP. The chemicals were formulated into a bland cream and evaluated in the following human or mouse skin tests: (1) occluded patch test for irritation; (2) cell turnover rate; (3) transepidermal water loss; (4) skin moisturization; and (5) reduction in erythema after induced sunburn. The human skin tests were conducted on three volunteer female subjects, ages 29-32; a cream base with no added active was included as a control, while the untreated skin served as an additional basis for evaluation. Sunburn tests were performed on a total of 30 hairless albino mice. 2. Cell turnover rate: This parameter was measured by adsorption of dansyl chloride, in which 3% dansyl chloride was incorporated into petrolatum. This salve was applied over a 2.5 cm diameter circular area in the upper arm and a patch applied. 24 hours later the patch was removed. The intensity of dansyl chloride fluorescence was indicative of the cell turnover rate in the epidermis.

[6] = test system: epidermal layer; assay: transepidermal water loss; assay type: in vivo, human
Protocol: (§1) Two PX compounds PX-11 and PX-13 were evaluated in a cream formulation prepared under GMP. The chemicals were formulated into a bland cream and evaluated in the following human or mouse skin tests: (1) occluded patch test for irritation; (2) cell turnover rate; (3) transepidermal water loss; (4) skin moisturization; and (5) reduction in erythema after induced sunburn. The human skin tests were conducted on three volunteer female subjects, ages 29-32; a cream base with no added active was included as a control, while the untreated skin served as an additional basis for evaluation. Sunburn tests were performed on a total of 30 hairless albino mice. 3. Transepidermal water loss. This parameter was measured by affixing a flow cell on the forearm site, applying the cream, waiting 20 minutes, then flushing the volume with nitrogen and noting the moisture content of the effluent gases.

[7] = test system: outer skin layers; assay: skin moisturization (20 megahertz ultrasound); assay type: in vivo, human; details: for Ultrasound Density Score: 30 minutes after application
Protocol: as §1, with “4. Skin moisturization. Skin moisturization” for “3. Transepidermal water loss. This parameter”, “using 20 megahertz ultrasound (the presence of moisture produces” for “by affixing”, “density decrease in” for “flow cell on”, “outer skin layers), before and 30 minutes after product application to” for “forearm site, applying”, “forearm.” for “cream, waiting 20 minutes, then flushing the volume with nitrogen and noting the moisture content of the effluent gases.”

[8] = test system: ultraviolet-induced erythema; assay: protection against ultraviolet-induced erythema; assay type: in vivo, hairless albino mice
Protocol: The human skin tests were conducted on three volunteer female subjects, ages 29-32; a cream base with no added active was included as a control, while the untreated skin served as an additional basis for evaluation. Sunburn tests were performed on a total of 30 hairless albino mice.
5.Protection against ultraviolet-induced ervthema. The protection against ultraviolet-induced erythema (i.e., the burn and irritation produced after exposure to ultraviolet radiation), was measured by first irradiating 12 mice with destructive 3130 angstrom (Å) rays, applying the creams, and then evaluating the skin cells for erythema.

For CCCCCCC(CC=CCCCCCCCC(=O)O)OC(=O)CN(CCN(CC(=O)O)CC(=O)OC(CC=CCCCCCCCC(=O)O)CCCCCC)CC(=O)O (centres unmarked) [N,N-Bis(oleic acid-12-oxycarbonylmethyl)-N-N′bis(carboxylmethyl) ethylenediamine], the solubility in water [1] was “readily soluble in water”.
For CCCCC/C=C\C/C=C\C/C=C\C/C=C\CCCC(=O)O [arachidonic acid], the “inhibition of in vitro PLA2 activity” value [2] was “inhibited”.
CCN(CC)CCCC(C)Nc1ccnc2cc(Cl)ccc12 (centres unmarked) [chloroquine] gave an IC50 ([3]; W2, read-out: IC50 growth) of 30 ng/mL (≈ 93.8 nM) and an IC50 ([4]; D6, read-out: IC50 growth) of 1.6 ng/mL (≈ 5 nM).
In the case of CCCCC/C=C\C/C=C\CCCCCCCC(=O)O [linoleic acid], the “inhibition of in vitro PLA2 activity” value [2] is reported as “inhibited”.
Work on OC(c1cc(C(F)(F)F)nc2c(C(F)(F)F)cccc12)C1CCCCN1 (centres unmarked) [mefloquine] yielded an IC50 ([3]; printed as control cultures sensitive to both drugs, compared with clone W2, read-out: IC50 growth) of 1.3 ng/mL (≈ 3.44 nM) and an IC50 ([4]; printed as control cultures sensitive to both drugs, compared with clone D6, read-out: IC50 growth) of 4.3 ng/mL (≈ 11.4 nM).
For CCCCCCCC/C=C\CCCCCCCC(=O)O [oleic acid], the “inhibition of in vitro PLA2 activity” value [2] was “inhibited”.
For tricinyl trioleate [PX-11], the “Days to Cell Renewal Treated” value ([5]; cream-treated skin, upper arm) was 28.8 days, the “% Change in Cell Turnover Time” value ([5]; treated vs untreated skin) was “+34%” and the “% Change in Transepidermal Water Loss” value ([6]; forearm, 20 minutes after applying cream) was “+649.0%”. The “effect on water loss from the epidermal layer” value ([6]; in vivo) was “opened the pores and permitted water to escape”, the “effectiveness at promoting water loss vs control” value ([6]; relative to control cream) was 10 times and the “Ultrasound Density Score” value ([7]; Subject 1, 7 = Best, 1 = Baseline) was 3. The “Ultrasound Density Score” value ([7]; Subject 2) was 3, the “Ultrasound Density Score” value ([7]; Subject 3) was 1 and the “Ultrasound Density Score Total” value ([7]; Total of 3 subjects, 7 = Best, 1 = Baseline) was 7. The “moisturization properties” value ([7]; in vivo) was “good moisturization properties”, the “Post-Radiation Erythema Ranking Mean” value ([8]; Mean, 1 = Best, 4 = Worst) was 2 and the “Post-Radiation Erythema Ranking” value ([8]; Subject 1, 1 = Best, 4 = Worst) was 2. The “Post-Radiation Erythema Ranking” value ([8]; Subject 2, 1 = Best, 4 = Worst) was 2, the “Post-Radiation Erythema Ranking” value ([8]; Subject 3, 1 = Best, 4 = Worst) was 2 and the “erythema reduction vs base cream” value ([8]; mouse, in vivo) was “significantly better than the base cream”.
